# Experiments:
# [1] = target: T1, human B1R receptor (hB1R) (Homo sapiens, UniProt P46663); test: FLIPR Ca2+ assay on human bradykinin 1 receptor (CHO K1 hB1R cells); type: cell-based; details: test substance 10 μM; CHO K1 cells with human B1R gene; agonist Lys-Des-Arg9-bradykinin 0.5 nM; compared to maximum achievable inhibition
# T1 construct: host or cells: CHO K1 cells
# T1 sequence (P46663 1-353): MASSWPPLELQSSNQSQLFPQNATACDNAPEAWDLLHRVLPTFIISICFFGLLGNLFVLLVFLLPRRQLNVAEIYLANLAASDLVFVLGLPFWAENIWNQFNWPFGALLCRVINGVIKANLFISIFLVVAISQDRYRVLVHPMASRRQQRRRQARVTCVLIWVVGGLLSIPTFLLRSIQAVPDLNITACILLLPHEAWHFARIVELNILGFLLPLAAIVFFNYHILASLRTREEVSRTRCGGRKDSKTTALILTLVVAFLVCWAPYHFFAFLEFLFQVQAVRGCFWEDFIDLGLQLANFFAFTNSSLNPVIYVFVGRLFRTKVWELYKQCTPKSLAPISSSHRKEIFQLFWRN
# Method: (§1) The agonistic or antagonistic action of compounds can be quantified on the bradykinin 1 receptor (B1R) of humans and rats with ectopically expressing cell lines (CHO K1 cells) and with the aid of a Ca^2+-sensitive dye (Fluo-4) in the fluorescent imaging plate reader (FLIPR). The figure in percent activation refers to the Ca^2+ signal after addition of Lys-Des-Arg^9-bradykinin (0.5 nM) and Des-Arg^9-bradykinin (100 nM). Antagonists result in a suppression of the Ca^2+ inflow after the addition of the agonist. Percent inhibition values are given in comparison to the maximum achievable inhibition.
# (§2) The agonistic or antagonistic action of substances can be determined on the bradykinin 1 receptor (B1R) of humans and rats by means of the following assay.
# (§3) According to this assay the Ca^2+ inflow through the channel is quantified by means of a Ca^2+-sensitive dye (Fluo-4 type, Molecular Probes Europe BV, Leiden, Netherlands), in a Fluorescent Imaging Plate Reader (FLIPR, Molecular Devices, Sunnyvale, USA). Method:
# (§4) Chinese hamster ovary cells (CHO K1 cells) are used, which are stably transfected with the human B1R gene (hB1R cells, Euroscreen s.a., Gosselies, Belgium), or with the B1R gene of rats (rB1R cells, Axxam, Milan, Italy). For functional investigations these cells are plated out on black 96-well plates with a clear floor (BD Biosciences, Heidelberg, Germany) in a density of 20,000/25,000 cells/well. The cells are incubated overnight with 10 vol. % FBS (foetal bovine serum, Gibco Invitrogen GmbH, Karlsruhe, Germany) at 37° C. and 5% CO2 in a culture medium (hB1R cells: Nutrient Mixture Ham's F12, Gibco Invitrogen GmbH, Karlsruhe, Germany; rB1R cells: D-MEM/F12, Gibco Invitrogen GmbH, Karlsruhe, Germany). The following day the cells are charged for 60 minutes at 37° C. with 2.13 μM Fluo-4 (Molecular Probes Europe BV, Leiden, Netherlands) in HBSS buffer (Hank's buffered saline solution, Gibco Invitrogen GmbH, Karlsruhe, Germany) together with […] (Sigma-Aldrich, Taufkirchen, Germany) and 10 mM HEPES (Sigma-Aldrich, Taufkirchen, Germany).
# (§5) The plates are then washed twice with HBSS buffer and HBSS buffer is added which additionally contains 0.1% BSA (bovine serum albumin; Sigma-Aldrich, Taufkirchen, Germany), 5.6 mM glucose and 0.05% gelatin (Merck KGaA, Darmstadt, Germany). After further incubation for 20 minutes at room temperature the plates are used for the Ca^2+ measurement in the FLIPR. The Ca^2+-dependent fluorescence is measured both before and after the addition of substances (λex=488 nm, λem=540 nm). The quantification is carried out by measuring the highest fluorescence intensity (FC, fluorescence counts) over time.
# (§6) The FLIPR protocol consists of two substance additions. First of all test substances (10 μM) are pipetted onto the cells and the Ca^2+ inflow is compared with the control (hB1R: Lys-Des-Arg9-bradykinin 0.5 nM; rB1R: Des-Arg9-bradykinin 100 nM). This gives the result in percent activation referred to the Ca^2+ signal after addition of Lys-Des-Arg9-bradykinin (0.5 nM), bzw. Des-Arg9-bradykinin (100 nM). After 10 minutes' incubation 0.5 nM Lys-Des-Arg9-bradykinin (hB1R) and 100 nM Des-Arg^9-bradykinin (rB1R) are applied and the inflow of Ca^2+ is likewise determined. Antagonists lead to a suppression of the Ca^2+ inflow. The percent inhibition compared to the maximum achievable inhibition is calculated. The compounds show a good activity on both human and rat receptors.
# (§7) The agonistic and antagonistic action of the compounds according to the invention on the bradykinin 1 receptor (B1R) of humans and rats were determined as described above. Antagonists lead to a suppression of the Ca^2+ inflow. The % inhibition compared to the maximum achievable inhibition was calculated.
# [2] = target: T2, B1R receptor of rats (rB1R) (Rattus norvegicus, UniProt P97583); test: FLIPR Ca2+ assay on rat bradykinin 1 receptor (CHO K1 rB1R cells); type: cell-based; details: test substance 10 μM; CHO K1 cells with B1R gene of rats; agonist Des-Arg9-bradykinin 100 nM; compared to maximum achievable inhibition
# T2 construct: host or cells: CHO K1 cells
# T2 sequence (P97583 1-337): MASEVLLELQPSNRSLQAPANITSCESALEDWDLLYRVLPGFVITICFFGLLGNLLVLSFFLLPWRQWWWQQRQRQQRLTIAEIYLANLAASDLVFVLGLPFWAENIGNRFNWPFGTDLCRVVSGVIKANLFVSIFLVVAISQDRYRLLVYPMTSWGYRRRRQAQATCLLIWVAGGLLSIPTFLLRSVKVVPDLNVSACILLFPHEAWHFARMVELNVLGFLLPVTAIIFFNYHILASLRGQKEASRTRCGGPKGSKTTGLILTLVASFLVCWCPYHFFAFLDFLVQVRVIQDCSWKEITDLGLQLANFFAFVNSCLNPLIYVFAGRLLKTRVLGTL
# Method: as §1, §2, §3, §4, §5, §6, §7
SMILES,inhibition at 10 µM [1],inhibition at 10 µM [2]
"COc1cc(C)c(S(=O)(=O)N(C)CCOCC(=O)N2CCn3c(CN4CCCC4)ccc3C2c2ccccc2)c(C)c1 (centres unmarked) [Example 15, 4-methoxy-N,2,6-trimethyl-N-(2-(2-oxo-2-(1-phenyl-6-(pyrrolidin-1-ylmethyl)-3,4-dihydropyrrolo[1,2-a]pyrazin-2(1H)-yl)ethoxy)ethyl)benzenesulfonamide]",101%,101%
"COc1cc(C)c(S(=O)(=O)N(C)CCOCC(=O)N2CCn3c(CN4CCCCC4)ccc3C2c2ccccc2)c(C)c1 (centres unmarked) [Example 16, 4-methoxy-N,2,6-trimethyl-N-(2-(2-oxo-2-(1-phenyl-6-(piperidin-1-ylmethyl)-3,4-dihydropyrrolo[1,2-a]pyrazin-2(1H)-yl)ethoxy)ethyl)benzenesulfonamide]",104%,102%
"COc1cc(C)c(S(=O)(=O)N(CCOCC(=O)N2CCn3cccc3C2c2cccnc2)CC(C)C)c(C)c1C (centres unmarked) [Example 19, N-isobutyl-4-methoxy-2,3,6-trimethyl-N-(2-(2-oxo-2-(1-(pyridin-3-yl)-3,4-dihydropyrrolo[1,2-a]pyrazin-2(1H)-yl)ethoxy)ethyl)benzenesulfonamide]",101%,98%
"COc1cc(C)c(S(=O)(=O)N(CCOCC(=O)N2CCn3ccnc3C2)CC(C)C)c(C)c1C [Example 21, N-(2-(2-(5,6-dihydroimidazo[1,2-a]pyrazin-7(8H)-yl)-2-oxoethoxy)ethyl)-N-isobutyl-4-methoxy-2,3,6-trimethylbenzenesulfonamide]",31%,100%
"COc1ccc(C2c3cccn3CCN2C(=O)COCCN(CC(C)C)S(=O)(=O)c2c(C)cc(OC)c(C)c2C)cc1 (centres unmarked) [Example 22, N-isobutyl-4-methoxy-N-(2-(2-(1-(4-methoxyphenyl)-3,4-dihydropyrrolo[1,2-a]pyrazin-2(1H)-yl)-2-oxoethoxy)ethyl)-2,3,6-trimethylbenzenesulfonamide]",53%,97%
"COc1cc(C)c(S(=O)(=O)N(CCOCC(=O)N2CCn3cccc3C2c2ccccc2)CC(C)C)c(C)c1C (centres unmarked) [Example 23, N-isobutyl-4-methoxy-2,3,6-trimethyl-N-(2-(2-oxo-2-(1-phenyl-3,4-dihydropyrrolo[1,2-a]pyrazin-2(1H)-yl)ethoxy)ethyl)benzenesulfonamide]",47%,97%
"COc1cc(C)c(S(=O)(=O)N(CCOCC(=O)N2CCn3cccc3C2c2cccc(F)c2)CC(C)C)c(C)c1C (centres unmarked) [Example 24, N-(2-(2-(1-(3-fluorophenyl)-3,4-dihydropyrrolo[1,2-a]pyrazin-2(1H)-yl)-2-oxoethoxy)ethyl)-N-isobutyl-4-methoxy-2,3,6-trimethylbenzenesulfonamide]",32%,99%
"COc1cccc(C2c3cccn3CCN2C(=O)COCCN(CC(C)C)S(=O)(=O)c2c(C)cc(OC)c(C)c2C)c1 (centres unmarked) [Example 26, N-isobutyl-4-methoxy-N-(2-(2-(1-(3-methoxyphenyl)-3,4-dihydropyrrolo[1,2-a]pyrazin-2(1H)-yl)-2-oxoethoxy)ethyl)-2,3,6-trimethylbenzenesulfonamide]",34%,99%
"COc1c(C)cc(S(=O)(=O)N(C)CCOCC(=O)N2CCn3cccc3C2C(C)(C)C)c(C)c1C (centres unmarked) [Example 27, N-(2-(2-(1-tert-butyl-3,4-dihydropyrrolo[1,2-a]pyrazin-2(1H)-yl)-2-oxoethoxy)ethyl)-4-methoxy-N,2,3,5-tetramethylbenzenesulfonamide]",95%,98%
"COc1c(C)cc(S(=O)(=O)N(C)CCOCC(=O)N2CCn3cccc3C2C)c(C)c1C (centres unmarked) [Example 28, 4-methoxy-N,2,3,5-tetramethyl-N-(2-(2-(1-methyl-3,4-dihydropyrrolo[1,2-a]pyrazin-2(1H)-yl)-2-oxoethoxy)ethyl)benzenesulfonamide]",37%,81%
"COc1c(C)cc(S(=O)(=O)N(C)CCOCC(=O)N2CCn3cccc3C2c2cccnc2)c(C)c1C (centres unmarked) [Example 29, 4-methoxy-N,2,3,5-tetramethyl-N-(2-(2-oxo-2-(1-(pyridin-3-yl)-3,4-dihydropyrrolo[1,2-a]pyrazin-2(1H)-yl)ethoxy)ethyl)benzenesulfonamide]",96%,79%

# The remaining lines, values ahead:
inhibition at 10 µM [1],inhibition at 10 µM [2],SMILES
102%,102%,"COc1cc(C)c(S(=O)(=O)N(C)CCOCC(=O)N2CCn3c(CN(C)C)ccc3C2c2cccs2)c(C)c1 (centres unmarked) [Example 17, N-(2-(2-(6-((dimethylamino)methyl)-1-(thiophen-2-yl)-3,4-dihydropyrrolo[1,2-a]pyrazin-2(1H)-yl)-2-oxoethoxy)ethyl)-4-methoxy-N,2,6-trimethylbenzene-sulfonamide]"
82%,98%,"COc1cc(C)c(S(=O)(=O)N(CCOCC(=O)N2CCn3cccc3C2C(C)(C)C)CC(C)C)c(C)c1C (centres unmarked) [Example 18, N-(2-(2-(1-tert-butyl-3,4-dihydropyrrolo[1,2-a]pyrazin-2(1H)-yl)-2-oxoethoxy)ethyl)-N-isobutyl-4-methoxy-2,3,6-trimethylbenzenesulfonamide]"
84%,98%,"COc1cc(C)c(S(=O)(=O)N(CCOCC(=O)N2CCn3cccc3C2c2ccc(Cl)nc2)CC(C)C)c(C)c1C (centres unmarked) [Example 20, N-(2-(2-(1-(6-chloropyridin-3-yl)-3,4-dihydropyrrolo[1,2-a]pyrazin-2(1H)-yl)-2-oxoethoxy)ethyl)-N-isobutyl-4-methoxy-2,3,6-trimethylbenzenesulfonamide]"
55%,98%,"COc1cc(C)c(S(=O)(=O)N(CCOCC(=O)N2CCn3cccc3C2c2cccs2)CC(C)C)c(C)c1C (centres unmarked) [Example 25, N-isobutyl-4-methoxy-2,3,6-trimethyl-N-(2-(2-oxo-2-(1-(thiophen-2-yl)-3,4-dihydropyrrolo[1,2-a]pyrazin-2(1H)-yl)ethoxy)ethyl)benzenesulfonamide]"
98%,76%,"COc1c(C)cc(S(=O)(=O)N(C)CCOCC(=O)N2CCn3cccc3C2c2ccc(Cl)nc2)c(C)c1C (centres unmarked) [Example 30, N-(2-(2-(1-(6-chloropyridin-3-yl)-3,4-dihydropyrrolo[1,2-a]pyrazin-2(1H)-yl)-2-oxoethoxy)ethyl)-4-methoxy-N,2,3,5-tetramethylbenzenesulfonamide]"
